Reference: patent US8889683B2, “Substituted quinoxalines as inhibitors of fatty acid binding protein” (Merck Sharp & Dohme Corp., priority 2010, dated 2014)

Each compound was assayed against FABP4 (Homo sapiens, UniProt P15090) (assay: TdF-based ligand binding affinity (FABP inhibitory activity assay)). Conditions: TdF-based ligand binding affinity constant.
Text: Theoretical basis for TdF-based ligand binding affinity constant
The derivation of TdF-based ligand binding affinity constant (Kd) followed closely those previously formulated by Brandts and Lin, Biochemistry 29 (1990) 6927-6940. In brief, the binding constant of the ligand at the Tm is expressed as below: […]
where T0 is the midpoint of unfolding for unliganded protein and Tm is the midpoint of unfolding in presence of ligand. [LTm] is free ligand at Tm. The ΔHu and ΔCpu are the enthalpy of unfolding and heat capacity change of unfolding for the protein respectively. The ΔCPu is proportional to the size of protein and is an approximate quantity in the above equation (empirically, ΔCpu=(MW of protein/115)*14 cal/mol*K). Following algorithm derived by Mayhood et al, (Analytical Biochemistry 345 (2005) 187-197), the T0 and ΔHu can be determined separately from nonlinear regression fitting the temperature dependent protein alone curve to the following equation: […]
The nonlinear regression fitting in general readily reaches convergence by properly constraining the initial values for the fitting parameters (e.g. the initial “guess” for the ΔHu was constrained to 120 kcal/mol; initial Yn and mr, were set to 1 and zero to best represent the melting curve along the low temperature region; negative slope of −0.5 was initially chosen for mu; initial Tm was also constrained to 50° C.).
(see Brandts et al and Mayhood et al, shown above) where ΔHL (T) is the van't Hoff enthalpy of ligand binding at temperature T and ΔCpL is the heat capacity upon ligand binding. For simplicity, the ΔCpL and ΔHL (T) were set to zero and −7 kcal/mol respectively. (The ΔCpL accounts for minimal portion of total protein-ligand binding energetics and is therefore set to zero (For example, see Hossein Naghibi et al, Proc. Natl. Acad. Sci. 92, 5597-5599 (1995), where ΔCpL was estimated to ˜2% of ΔHL at 25° C. obtained from calorimetric study of binding RNase A and 2′-CMP)).

Sequence of FABP4 (P15090 whole entry): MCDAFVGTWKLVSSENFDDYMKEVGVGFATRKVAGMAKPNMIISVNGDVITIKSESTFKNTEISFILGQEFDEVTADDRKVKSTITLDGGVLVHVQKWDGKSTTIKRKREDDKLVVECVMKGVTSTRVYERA

SMILES | Kd
O=C(c1nc2cc(F)c(F)cc2nc1O)N1CCCC1Cc1cccc(Cl)c1 (racemic) [Compound 1-2, (+/−)-[2-(3-chlorobenzyl)pyrrolidin-1-yl](6,7-difluoro-3-hydroxyquinoxalin-2-yl)methanone] | 80 nM
O=C(c1nc2cc(F)ccc2nc1O)N1CCCC1Cc1cccc(Cl)c1 (racemic) [Compound 1-3, (+/−)-[2-(3-Chlorobenzyl)pyrrolidin-1-yl](7-fluoro-3-hydroxyquinoxalin-2-yl)methanone] | 300 nM
O=C(c1nc2ccc(F)cc2nc1O)N1CCCC1Cc1cccc(Cl)c1 (racemic) [Compound 1-4, (+/−)-[2-(3-Chlorobenzyl)pyrrolidin-1-yl](6-fluoro-3-hydroxyquinoxalin-2-yl)methanone] | 180 nM
O=C(c1nc2c(Cl)cccc2nc1O)N1CCCC1Cc1cccc(Cl)c1 (racemic) [Compound 1-8, (+/−)-(8-Chloro-3-hydroxyquinoxalin-2-yl)[2-(3-chlorobenzyl)pyrrolidin-1-yl]methanone] | 110 nM
O=C(c1nc2cc(Cl)ccc2nc1O)N1CCCC1Cc1cccc(Cl)c1 (racemic) [Compound 1-9, (+/−)-(7-Chloro-3-hydroxyquinoxalin-2-yl)[2-(3-chlorobenzyl)pyrrolidin-1-yl]methanone] | 410 nM
O=C(c1nc2ccc(Cl)cc2nc1O)N1CCCC1Cc1cccc(Cl)c1 (racemic) [Compound 1-10, (+/−)-(6-Chloro-3-hydroxyquinoxalin-2-yl)[2-(3-chlorobenzyl)pyrrolidin-1-yl]methanone] | 250 nM
O=C(c1nc2cccc(Cl)c2nc1O)N1CCCC1Cc1cccc(Cl)c1 (racemic) [Compound 1-11, (+/−)-(5-Chloro-3-hydroxyquinoxalin-2-yl)[2-(3-chlorobenzyl)pyrrolidin-1-yl]methanone] | 3 nM
O=C(c1nc2cc(Cl)c(Cl)cc2nc1O)N1CCCC1Cc1cccc(Cl)c1 (racemic) [Compound 1-13, (+/−)-[2-(3-Chlorobenzyl)pyrrolidin-1-yl](6,7-dichloro-3-hydroxyquinoxalin-2-yl)methanone] | 63 nM
O=C(c1nc2cc(I)ccc2nc1O)N1CCCC1Cc1cccc(Cl)c1 (racemic) [Compound 1-18, (+/−)-[2-(3-Chlorobenzyl)pyrrolidin-1-yl](3-hydroxy-7-iodoquinoxalin-2-yl)methanone] | 630 nM
O=C(c1nc2ccc(I)cc2nc1O)N1CCCC1Cc1cccc(Cl)c1 (racemic) [Compound 1-19, (+/−)-[2-(3-Chlorobenzyl)pyrrolidin-1-yl](3-hydroxy-6-iodoquinoxalin-2-yl)methanone] | 460 nM
O=C(c1nc2cc(OC(F)(F)F)ccc2nc1O)N1CCCC1Cc1cccc(Cl)c1 (racemic) [Compound 1-20, (+/−)-[2-(3-Chlorobenzyl)pyrrolidin-1-yl][3-hydroxy-7-(trifluoromethoxy)quinoxalin-2-yl]methanone] | 950 nM
O=C(c1nc2ccc(OC(F)(F)F)cc2nc1O)N1CCCC1Cc1cccc(Cl)c1 (racemic) [Compound 1-21, (+/−)-[2-(3-Chlorobenzyl)pyrrolidin-1-yl][3-hydroxy-6-(trifluoromethoxy)quinoxalin-2-yl]methanone] | 220 nM
O=C(c1nc2cc(SC(F)(F)F)ccc2nc1O)N1CCCC1Cc1cccc(Cl)c1 (racemic) [Compound 1-22, (+/−)-[2-(3-Chlorobenzyl)pyrrolidin-1-yl][3-hydroxy-7-(trifluoromethylthio]quinoxalin-2-yl)methanone] | 24 nM
O=C(c1nc2ccc(SC(F)(F)F)cc2nc1O)N1CCCC1Cc1cccc(Cl)c1 (racemic) [Compound 1-23, (+/−)-[2-(3-Chlorobenzyl)pyrrolidin-1-yl][3-hydroxy-6-(trifluoromethylthio]quinoxalin-2-yl)methanone] | 24 nM
O=C(c1nc2cc(S(=O)(=O)C(F)(F)F)ccc2nc1O)N1CCCC1Cc1cccc(Cl)c1 (racemic) [Compound 1-24, (+/−)-[2-(3-Chlorobenzyl)pyrrolidin-1-yl][3-hydroxy-7-(trifluoromethylsulfonyl)quinoxalin-2-yl]methanone] | 300 nM
